According to paper PMC9500072, “Topical application of an irreversible small molecule inhibitor of lysyl oxidases ameliorates skin scarring and fibrosis” (Nature Communications, 2022):

Tests used:
[1] = system: Imidazoline I2, Central; assay: Eurofins panel 241000; format: binding, rat; details: 10 µM
[2] = system: LOX; assay: Substrate (putrescine) competition; format: biochemical; design: Fig. 2D activity: scale not given here
Excerpt: PXS-4787 competes with a model substrate (putrescine) for the LOX binding site (Fig. 2d). The allylamine of PXS-4787 interacts with the co-factor of the enzyme and elicits mechanism-based inhibition (Fig. 2e). Through careful optimization, and in contrast to BAPN, PXS-4787 selectivity targets lysyl oxidases and is neither an inhibitor of, nor a substrate for, related oxidases (Fig. 2f, g and Supplementary Table S1). Furthermore, PXS-4787 was clean when profiled in a broad panel of macromolecular targets using enzyme and radioligand binding assays (LeadProfilingScreen, Eurofins CEREP Panlabs, 68 assays, test concentration 10 µM; Supplementary Data S1).
Data are expressed as mean ± SEM. Subsequent statistical analysis was performed with unpaired two-sided Student’s t tests. *p < 0.05, **p < 0.01, ***p < 0.001and ****p < 0.0001. Source data are provided as a Source Data file.
The measurement of the enzymatic activity of all lysyl oxidase family members was based on the detection of hydrogen peroxide with an Amplex-Red oxidation assay, as previously described; miniaturized in 384 well formats, with the appropriate combination of substrate and assay buffer for each individual enzyme. After a 30 min pre-incubation of the enzyme at 37 °C with the test compound (or with different incubation times for the time-dependency assay), one volume of reaction mixture containing 120 μM Amplex Red (AR) (Life Technologies), 1.5 U/mL horseradish peroxidase (HRP) (Sigma-Aldrich) and the specific substrate was added to each sample. The relative fluorescence units (RFU) were then measured every 2.5 min for 30 min at 37 °C, excitation 565 nm and emission 590, on a BMG Clariostar Microplate Reader. All the substrates were used at concentrations corresponding to their Km towards the corresponding enzyme, or with a range of different concentrations for the substrate competition experiments.

[3] = target: Estrogen ERα (Homo sapiens, UniProt P03372); assay: Eurofins panel 226010; format: binding
Chain of Estrogen ERα (P03372 whole entry): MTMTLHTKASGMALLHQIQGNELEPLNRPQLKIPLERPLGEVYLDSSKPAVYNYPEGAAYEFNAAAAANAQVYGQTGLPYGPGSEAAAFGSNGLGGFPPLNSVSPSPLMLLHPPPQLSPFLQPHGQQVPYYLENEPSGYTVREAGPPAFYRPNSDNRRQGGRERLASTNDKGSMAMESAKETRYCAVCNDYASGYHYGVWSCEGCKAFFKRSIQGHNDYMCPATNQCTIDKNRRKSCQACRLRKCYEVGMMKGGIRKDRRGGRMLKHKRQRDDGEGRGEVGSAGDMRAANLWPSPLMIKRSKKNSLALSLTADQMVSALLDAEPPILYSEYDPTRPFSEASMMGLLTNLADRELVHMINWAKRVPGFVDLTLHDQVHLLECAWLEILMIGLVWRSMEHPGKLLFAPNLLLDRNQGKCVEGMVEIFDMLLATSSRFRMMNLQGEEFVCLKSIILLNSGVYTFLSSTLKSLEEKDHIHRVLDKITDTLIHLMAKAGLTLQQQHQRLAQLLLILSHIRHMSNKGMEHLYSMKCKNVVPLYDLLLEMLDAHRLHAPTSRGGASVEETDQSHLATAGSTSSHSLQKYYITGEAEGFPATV

[4] = system: Glutamate, NMDA, Phencyclidine; assay: Eurofins panel 233000; format: binding, rat; details: 10 µM
[5] = system: Rolipram; assay: Eurofins panel 270000; format: binding, rat; details: 10 µM
[6] = target: Cyclooxygenase COX-1 (Homo sapiens, UniProt P23219); assay: Eurofins panel 116020; format: biochemical
Chain of Cyclooxygenase COX-1 (P23219 24-599): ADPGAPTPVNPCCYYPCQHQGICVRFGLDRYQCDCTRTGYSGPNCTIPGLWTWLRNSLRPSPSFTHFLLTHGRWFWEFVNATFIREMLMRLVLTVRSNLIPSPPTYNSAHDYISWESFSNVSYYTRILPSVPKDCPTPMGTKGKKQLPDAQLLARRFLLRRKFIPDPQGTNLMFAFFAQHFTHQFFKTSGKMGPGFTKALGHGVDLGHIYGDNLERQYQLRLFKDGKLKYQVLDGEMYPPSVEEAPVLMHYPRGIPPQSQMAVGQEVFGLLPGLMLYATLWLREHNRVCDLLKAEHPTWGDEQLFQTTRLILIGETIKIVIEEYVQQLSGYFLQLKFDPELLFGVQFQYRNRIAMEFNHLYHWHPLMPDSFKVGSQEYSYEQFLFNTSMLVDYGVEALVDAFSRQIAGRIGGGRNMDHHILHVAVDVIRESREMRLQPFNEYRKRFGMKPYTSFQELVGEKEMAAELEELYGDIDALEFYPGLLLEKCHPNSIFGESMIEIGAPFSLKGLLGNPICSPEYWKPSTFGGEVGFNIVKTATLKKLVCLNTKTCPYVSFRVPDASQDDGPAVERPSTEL

[7] = target: Serotonin (5-Hydroxytryptamine) 5-HT1B (Homo sapiens, UniProt P28222); assay: Eurofins panel 271230; format: binding
Chain of Serotonin (5-Hydroxytryptamine) 5-HT1B (P28222 whole entry): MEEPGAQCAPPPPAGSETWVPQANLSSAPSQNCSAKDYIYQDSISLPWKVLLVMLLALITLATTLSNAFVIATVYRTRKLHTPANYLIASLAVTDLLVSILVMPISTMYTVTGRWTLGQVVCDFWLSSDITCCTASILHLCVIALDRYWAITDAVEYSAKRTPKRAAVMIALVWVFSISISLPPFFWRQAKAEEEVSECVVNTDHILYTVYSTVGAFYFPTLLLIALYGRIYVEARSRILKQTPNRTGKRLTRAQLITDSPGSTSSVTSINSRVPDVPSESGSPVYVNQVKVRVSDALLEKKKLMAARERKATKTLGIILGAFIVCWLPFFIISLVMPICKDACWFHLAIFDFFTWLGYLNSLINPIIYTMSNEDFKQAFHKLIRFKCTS

For `NC/C=C(\F)CS(=O)(=O)c1ccccc1` [PXS-4787], which “% Inh.” value [1] is on record?
The value was -10%.

And the “competition with model substrate putrescine for the LOX binding site” value [2]?
Its value is “competes”.

What about the “Fig. 2D activity” value ([2]; 5.65e-10, putrescine 1.1 mM) of the same compound?
The value was 89.58.

And the “Fig. 2D activity” value ([2]; 5.65e-10, putrescine 3.3 mM)?
Its value is 93.22.

What about the “Fig. 2D activity” value ([2]; 5.65e-10, putrescine 10 mM) of the same compound?
The value was 98.29.

What about the “Fig. 2D activity” value ([2]; 5.65e-10, putrescine 30 mM) of the same compound?
The value was 96.57.

What about the “Fig. 2D activity” value ([2]; 5.65e-10, putrescine 90 mM) of the same compound?
The value was 93.38.

What about the “Fig. 2D activity” value ([2]; 1.69e-9, putrescine 1.1 mM) of the same compound?
The value was 84.4.

And the “Fig. 2D activity” value ([2]; 1.69e-9, putrescine 3.3 mM)?
The value was 94.23.

What about the “Fig. 2D activity” value ([2]; 1.69e-9, putrescine 10 mM) of the same compound?
Its value is 94.63.

What about the “Fig. 2D activity” value ([2]; 1.69e-9, putrescine 30 mM) of the same compound?
The value was 93.67.

And the “Fig. 2D activity” value ([2]; 1.69e-9, putrescine 90 mM)?
Its value is 92.69.

And the “Fig. 2D activity” value ([2]; 5.08e-9, putrescine 1.1 mM)?
The value was 89.54.

What about the “Fig. 2D activity” value ([2]; 5.08e-9, putrescine 3.3 mM) of the same compound?
Its value is 93.84.

And the “Fig. 2D activity” value ([2]; 5.08e-9, putrescine 10 mM)?
The value was 97.41.

And the “Fig. 2D activity” value ([2]; 5.08e-9, putrescine 30 mM)?
Its value is 96.12.

And the “Fig. 2D activity” value ([2]; 5.08e-9, putrescine 90 mM)?
The value was 91.41.

And the “Fig. 2D activity” value ([2]; 1.52e-8, putrescine 1.1 mM)?
The value was 91.17.

What about the “Fig. 2D activity” value ([2]; 1.52e-8, putrescine 3.3 mM) of the same compound?
The value was 95.49.

And the “Fig. 2D activity” value ([2]; 1.52e-8, putrescine 10 mM)?
The value was 93.57.

And the “Fig. 2D activity” value ([2]; 1.52e-8, putrescine 30 mM)?
Its value is 97.83.

What about the “Fig. 2D activity” value ([2]; 1.52e-8, putrescine 90 mM) of the same compound?
The value was 92.34.

And the “Fig. 2D activity” value ([2]; 4.57e-8, putrescine 1.1 mM)?
The value was 81.95.

What about the “Fig. 2D activity” value ([2]; 4.57e-8, putrescine 3.3 mM) of the same compound?
The value was 93.97.

What about the “Fig. 2D activity” value ([2]; 4.57e-8, putrescine 10 mM) of the same compound?
Its value is 95.69.

And the “Fig. 2D activity” value ([2]; 4.57e-8, putrescine 30 mM)?
Its value is 96.71.

What about the “Fig. 2D activity” value ([2]; 4.57e-8, putrescine 90 mM) of the same compound?
Its value is 93.31.

What about the “Fig. 2D activity” value ([2]; 1.37e-7, putrescine 1.1 mM) of the same compound?
Its value is 73.72.

What about the “Fig. 2D activity” value ([2]; 1.37e-7, putrescine 3.3 mM) of the same compound?
Its value is 89.33.

And the “Fig. 2D activity” value ([2]; 1.37e-7, putrescine 10 mM)?
Its value is 93.77.

And the “Fig. 2D activity” value ([2]; 1.37e-7, putrescine 30 mM)?
Its value is 94.81.

And the “Fig. 2D activity” value ([2]; 1.37e-7, putrescine 90 mM)?
Its value is 93.26.

What about the “Fig. 2D activity” value ([2]; 4.12e-7, putrescine 1.1 mM) of the same compound?
Its value is 60.93.

And the “Fig. 2D activity” value ([2]; 4.12e-7, putrescine 3.3 mM)?
The value was 75.9.

And the “Fig. 2D activity” value ([2]; 4.12e-7, putrescine 10 mM)?
The value was 89.23.

What about the “Fig. 2D activity” value ([2]; 4.12e-7, putrescine 30 mM) of the same compound?
The value was 89.28.

And the “Fig. 2D activity” value ([2]; 4.12e-7, putrescine 90 mM)?
Its value is 90.74.

What about the “Fig. 2D activity” value ([2]; 1.23e-6, putrescine 1.1 mM) of the same compound?
The value was 32.69.

What about the “Fig. 2D activity” value ([2]; 1.23e-6, putrescine 3.3 mM) of the same compound?
Its value is 47.9.

And the “Fig. 2D activity” value ([2]; 1.23e-6, putrescine 10 mM)?
The value was 67.1.

What about the “Fig. 2D activity” value ([2]; 1.23e-6, putrescine 30 mM) of the same compound?
The value was 81.21.

And the “Fig. 2D activity” value ([2]; 1.23e-6, putrescine 90 mM)?
The value was 86.37.

And the “Fig. 2D activity” value ([2]; 3.7e-6, putrescine 1.1 mM)?
The value was 11.17.

And the “Fig. 2D activity” value ([2]; 3.7e-6, putrescine 3.3 mM)?
The value was 19.92.

And the “Fig. 2D activity” value ([2]; 3.7e-6, putrescine 10 mM)?
The value was 38.7.

What about the “Fig. 2D activity” value ([2]; 3.7e-6, putrescine 30 mM) of the same compound?
The value was 60.57.

And the “Fig. 2D activity” value ([2]; 3.7e-6, putrescine 90 mM)?
Its value is 76.61.

What about the “Fig. 2D activity” value ([2]; 1.11e-5, putrescine 1.1 mM) of the same compound?
Its value is 3.35.

And the “Fig. 2D activity” value ([2]; 1.11e-5, putrescine 3.3 mM)?
Its value is 6.43.

And the “Fig. 2D activity” value ([2]; 1.11e-5, putrescine 10 mM)?
The value was 14.18.

And the “Fig. 2D activity” value ([2]; 1.11e-5, putrescine 30 mM)?
Its value is 32.4.

And the “Fig. 2D activity” value ([2]; 1.11e-5, putrescine 90 mM)?
The value was 57.08.

What about the “Fig. 2D activity” value ([2]; 3.33e-5, putrescine 1.1 mM) of the same compound?
Its value is -0.5.

And the “Fig. 2D activity” value ([2]; 3.33e-5, putrescine 3.3 mM)?
Its value is 1.53.

And the “Fig. 2D activity” value ([2]; 3.33e-5, putrescine 10 mM)?
The value was 3.65.

And the “Fig. 2D activity” value ([2]; 3.33e-5, putrescine 30 mM)?
The value was 9.04.

And the “Fig. 2D activity” value ([2]; 3.33e-5, putrescine 90 mM)?
The value was 24.08.

And the “Fig. 2D activity” value ([2]; 0.0001, putrescine 1.1 mM)?
The value was -0.9.

And the “Fig. 2D activity” value ([2]; 0.0001, putrescine 3.3 mM)?
Its value is -0.36.

And the “Fig. 2D activity” value ([2]; 0.0001, putrescine 10 mM)?
The value was 0.174.

What about the “Fig. 2D activity” value ([2]; 0.0001, putrescine 30 mM) of the same compound?
The value was 1.46.

What about the “Fig. 2D activity” value ([2]; 0.0001, putrescine 90 mM) of the same compound?
Its value is 4.82.

What about the inhibition at 10 µM [3] of the same compound?
The inhibition at 10 µM was 3%.

What about the “% Inh.” value [4] of the same compound?
The value was 8%.

What about the “% Inh.” value [5] of the same compound?
The value was 17%.

For `NC/C=C(\F)C(F)(F)S(=O)(=O)c1ccccc1` [PXS-6302], which inhibition at 30 µM [6] is on record?
The inhibition at 30 µM was 36%.

What about the inhibition at 30 µM [7] of the same compound?
Its inhibition at 30 µM is -3%.
